According to patent publication US11155546B2, “4,6,7-trisubstituted 1,2-dihydropyrrolo[3,4-c]pyridin/pyrimidin-3-one derivatives and uses thereof” (SHANGHAI HAIYAN PHARMACEUTICAL TECHNOLOGY CO., LTD., priority 2017, dated 2021):

Columns and labels:
BTK WT = BTK WT (Homo sapiens (Human), UniProt Q06187); test: Lantha screening kinase reaction, inhibition of BTK WT; assay type: biochemical
Experimental: The compound was predissolved in 100% DMSO. 10 mM drug stock solution was obtained by dissolution at room temperature and then serially diluted with 8 vol % DMSO solution to a final concentration of 10-0.005 μM. […] Among the wells, the kinase in the blank well was replaced with a reaction buffer and the kinase well (Enzyme) was not added with any drug. After shaking at 25° C. for 60 minutes in the dark, 10 μl of Detection Solution (mixture of Invitrogen PV3528 and EDTA, which was diluted with TR-FRET dilution buffer, the working concentration of EDTA was 5 mM, the working concentration of Lanthascreening Tb PY20 antibody was 0.2 nM) was added and shaken at room temperature for 30 minutes. The plates were read on a VictorX5 fluorescent plate reader (PerkinElmer) and the light absorption at an excitation wavelength of 340 nm and emission wavelengths of 500 nm and 520 nm was measured.
The calculation method for the inhibition ratio (referring to the specification of Invitrogen, PV3363) was as follows: Emission ratio (ER):Coumarin Emission (520 nm)/Fluorescein Emission (500 nm) 1. The inhibition ratio (IR):(ERkinase−ERtest compound)/(ERkinase−ERblank)×100%. 2.
The half-inhibitory concentration IC50 was calculated by fitting with XLFIT5.0 software (IDBS, UK).

βBTK Y223 = βBTK Y223 (Homo sapiens (Human), UniProt Q06187); test: Intracellular βBTK Y223 phosphorylation HTRF in Ramos cells; assay type: cell-based
Experimental: The compound was predissolved in 100% DMSO. […] 20 μl of lysate (4× lysate: blocked mother liquor is 25:1) was added to each well and incubated for 30 minutes at 25° C. on a shaker. It was shaken on an oscillator at 800 rpm for 1 minute. […] The half-inhibitory concentration IC50 was calculated by fitting with XLFIT 5.0 software (IDBS, UK).

wild-type EGFR kinase = wild-type EGFR kinase (Homo sapiens (Human), UniProt P00533); test: Wild type EGFR kinase inhibition test (z-lyte); assay type: biochemical; conditions: 10 μM ATP; read-out: EGFR WT IC50
Text: All the following reagents used in z-lyte test are commercially available from Invitrogen.
The calculation method for the inhibition ratio (referring to the specification of Invitrogen, PV3363) was as follows: ER=Coumarin Emission(450 nm)/Fluorescein Emission(520 nm) 1. Phosphorylation ratio=(1−((ER×C3520nm−C3450nm)/((C1450nm−C3450nm)+ER×(C3520nm−C1520nm))))×100% 2. Inhibition ratio (IR)=(1−phosphorylation ratio of the test compound)/(phosphorylation ratio of C2))×100% 3.
The half-inhibitory concentration IC50 was calculated by fitting with XLFIT 5.0 software (IDBS, UK).

in vivo = conditions: mouse, in vivo, po, 30 mg/kg
Experimental: Test Animals: ICR mice, weight 28-30 g, male, totally 12, purchased from SLAC Laboratory Animal Co., Ltd. Mice were fasting one night before administration and freely fed 4 hours after administration.
Administration and Blood collection: 6 mice were administered intragastrically (PO) in a administered dosage of 30 mg/kg and a administered volume of 10 mL/kg. One administration route was subjected with 6 mice, blood samples of three mice were collected at one time point, and blood samples of another three mice were collected at alternate time point alternately. Blood was collected at 8 time points of 0.083, 0.25, 0.5, 1, 2, 4, 8, 24 h after administration respectively.
Animals were manually controlled at the time of collection and approximately 80 μL of blood was collected from the mice fundus venous plexus into a tube containing K2EDTA. The collected blood sample was put on wet ice, centrifuged within 15 min (8000 rpm, 4 min at 4° C.), and then the plasma sample was taken and stored at minus 20° C. till analysis. The compounds were prepared on the day of the experiment.
Solvent excipient information: DMSO (brand: Sigma, batch number: SHBD2446V); 2-hydroxypropyl-3-cyclodextrin (brand: Sigma, batch number: BCBN8227V), acetic acid (brand: Sinopharm Group, batch number: 20150616), sodium acetate (Brand: GENERAL-REAGENT, batch number: P1246037).
Preparation of a 3 mg/mL PO dosing solution: the solvent was a solution of 5% DMSO and 95% PH4.5 (sodium acetate-acetate) in 20% of 2-hydroxypropyl-β-cyclodextrin.
Analytical method: Plasma samples were analyzed by liquid chromatography-tandem mass spectrometry (Instrument type: Triple Quad™ 4000).
Preparation of the standard curve: preparing a standard curve of the test compound 1n the plasma matrix of ICR mice with a linear range of 1.00-3000 ng/mL, and preparing control samples at low, medium and high concentrations of 3 ng/mL, 500 ng/mL, and 2400 ng/mL respectively.
Treatment of biological samples: the frozen plasma samples were thawed on ice, and after the samples were thawed, they were vortexed on a vortex for 5 min. 20 μL of plasma sample was added to a 96-well plate, and 200 μL of acetonitrile (brand: Merck, Lot: 1854029643) containing an internal standard dexamethasone (Brand: NIFDC, Lot: 1N2V-DPGY, 2000 ng/mL) was added to precipitate protein, which were vortexed for 5 min, and then centrifuged at 3700 rpm and 4° C. for 15 min. The supernatant was extracted and twice centrifuged under the same conditions, and finally 2 μL of the supernatant solution was analyzed by LC-MS/MS.

wild-type EGFR kinase, sequence (P00533 25-1210): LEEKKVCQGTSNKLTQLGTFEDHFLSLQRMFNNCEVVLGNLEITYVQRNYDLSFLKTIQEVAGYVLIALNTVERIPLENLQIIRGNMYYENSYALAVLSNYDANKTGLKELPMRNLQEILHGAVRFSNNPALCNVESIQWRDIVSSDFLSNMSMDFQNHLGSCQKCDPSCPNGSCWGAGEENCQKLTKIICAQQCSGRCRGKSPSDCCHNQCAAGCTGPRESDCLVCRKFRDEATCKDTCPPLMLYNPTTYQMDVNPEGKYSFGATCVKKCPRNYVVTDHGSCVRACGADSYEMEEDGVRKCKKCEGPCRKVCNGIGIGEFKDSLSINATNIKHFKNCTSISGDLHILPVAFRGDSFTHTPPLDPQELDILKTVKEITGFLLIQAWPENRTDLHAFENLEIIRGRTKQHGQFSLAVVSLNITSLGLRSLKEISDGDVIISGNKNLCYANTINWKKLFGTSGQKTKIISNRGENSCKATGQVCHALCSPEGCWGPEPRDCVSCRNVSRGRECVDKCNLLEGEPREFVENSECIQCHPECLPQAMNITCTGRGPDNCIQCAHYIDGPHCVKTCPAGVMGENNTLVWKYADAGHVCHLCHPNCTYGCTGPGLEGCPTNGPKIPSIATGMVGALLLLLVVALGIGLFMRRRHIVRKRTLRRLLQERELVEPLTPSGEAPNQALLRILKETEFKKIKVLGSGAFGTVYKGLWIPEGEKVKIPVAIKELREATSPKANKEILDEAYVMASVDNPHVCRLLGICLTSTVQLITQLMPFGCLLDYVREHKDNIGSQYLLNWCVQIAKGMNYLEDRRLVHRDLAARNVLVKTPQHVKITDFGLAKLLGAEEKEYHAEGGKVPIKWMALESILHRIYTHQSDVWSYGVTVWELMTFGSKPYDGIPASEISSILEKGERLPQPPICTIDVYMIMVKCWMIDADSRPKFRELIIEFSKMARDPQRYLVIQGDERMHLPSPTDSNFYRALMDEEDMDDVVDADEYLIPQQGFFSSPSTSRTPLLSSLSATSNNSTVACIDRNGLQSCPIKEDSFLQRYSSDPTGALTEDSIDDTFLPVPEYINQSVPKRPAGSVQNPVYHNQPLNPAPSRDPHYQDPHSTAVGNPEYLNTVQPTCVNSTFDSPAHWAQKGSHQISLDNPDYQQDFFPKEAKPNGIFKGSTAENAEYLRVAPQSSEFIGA
BTK WT, sequence (Q06187 whole entry): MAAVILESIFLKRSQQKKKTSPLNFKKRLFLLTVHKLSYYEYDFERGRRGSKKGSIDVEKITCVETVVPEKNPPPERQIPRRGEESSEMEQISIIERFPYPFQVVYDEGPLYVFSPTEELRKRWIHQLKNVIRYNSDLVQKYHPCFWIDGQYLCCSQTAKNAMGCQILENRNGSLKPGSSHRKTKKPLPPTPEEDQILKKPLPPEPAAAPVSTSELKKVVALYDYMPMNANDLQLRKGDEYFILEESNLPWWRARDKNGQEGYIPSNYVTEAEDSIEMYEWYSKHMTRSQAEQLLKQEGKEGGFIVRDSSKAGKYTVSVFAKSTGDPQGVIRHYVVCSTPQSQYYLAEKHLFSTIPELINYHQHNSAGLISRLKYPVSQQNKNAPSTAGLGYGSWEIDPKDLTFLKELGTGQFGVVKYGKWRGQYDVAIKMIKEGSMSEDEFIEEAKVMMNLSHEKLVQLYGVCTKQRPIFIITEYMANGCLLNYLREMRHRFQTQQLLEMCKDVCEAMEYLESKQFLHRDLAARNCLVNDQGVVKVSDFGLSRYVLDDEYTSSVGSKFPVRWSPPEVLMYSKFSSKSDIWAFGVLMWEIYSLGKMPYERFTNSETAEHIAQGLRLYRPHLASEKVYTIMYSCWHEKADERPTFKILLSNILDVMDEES
βBTK Y223, sequence (Q06187 whole entry): as above

SMILES	IC50 (BTK WT)	IC50 (βBTK Y223)	IC50 (wild-type EGFR kinase)	also measured
C=CC(=O)N1CCCC(N(C)c2nc(-c3cnn(C(F)F)c3)c3c(c2F)CNC3=O)C1 (stereo not drawn) [Compound G-63, 6-((1-acryloylpiperidin-3-yl)(methyl)amino)-4-(1-(difluoromethyl)-1H-pyrazole-4-yl)-7-fluoro-1H-pyrrolo[3,4-c]pyridine-3(2H)-one]	25 nM	50 nM	> 10000 nM	–
C=CC(=O)N1CCCC(Nc2nc(Nc3ccc(N4CCN(C)CC4)cc3)c3c(c2F)CNC3=O)C1 (stereo not drawn) [Compound G-11]	1 nM	2 nM	4250 nM	–
C=CC(=O)N1CCCC(Nc2nc(Nc3ccc(OCCOC)cc3)c3c(c2F)CNC3=O)C1 (stereo not drawn) [Compound G-2, 6-(1-acryloylpiperidin-3-ylamino)-7-fluoro-4-(4-(2-methoxyethoxy)phenylamino)-1H-pyrrolo[3,4-c]pyridine-3 (2H)-one]	3 nM	5 nM	1620 nM	–
C=CC(=O)N1CCCC(N(C)c2nc(Nc3cc(C)ns3)c3c(c2F)CNC3=O)C1 (stereo not drawn) [Compound G-72, 6-((1-acryloylpiperidin-3-yl)(methyl)amino)-7-fluoro-4-(3-methylisothiazole-5-ylamino)-1H-pyrrolo[3,4-c]pyridine-3(2H)-one]	5 nM	4 nM	1660 nM	AUC (in vivo; male, ICR): 107 ng·h/mL; Cmax (in vivo; male, ICR): 10.7 ng/mL; Tmax (in vivo; male, ICR): 15 min; half-life (in vivo; male, ICR): 679 min; efficacy of the compound in mice compared with the compound without substituent on the nitrogen atom attached to the piperidine ring (in vivo): significantly lower
C=CC(=O)N1CCCC(Nc2nc(Nc3cnn(C)c3)c3c(c2F)CNC3=O)C1 (stereo not drawn) [Compound G-25]	2 nM	2 nM	1090 nM	–
C=CC(=O)N1CCCC(Nc2nc(Nc3ccc(OCCOC)cc3)c3c(c2F)CNC3=O)CC1 (stereo not drawn) [Compound G-4]	7 nM	23 nM	2370 nM	–
C=CC(=O)N1CC(Nc2nc(Nc3ccc(OCCOC)cc3)c3c(c2F)CNC3=O)C1 [Compound G-5]	48 nM	59 nM	1910 nM	–
C=CC(=O)N1CCCC(Nc2nc(Nc3ccc(N4CCOCC4)cc3)c3c(c2F)CNC3=O)C1 (stereo not drawn) [Compound G-14]	3 nM	3 nM	4130 nM	Area under curve AUC (in vivo): 1072 ng·h/mL; Maximum blood concentration Cmax (in vivo): 1240.0 ng/mL; Oral relative bioavailability F (%) (in vivo): 13.7%; Tmax (in vivo): 4.8 min; half-time T1/2 (in vivo): 2.47 h
C=CC(=O)N1CCCC(Nc2nc(Nc3ccc(N4CCOCC4)cc3F)c3c(c2F)CNC3=O)C1 (stereo not drawn) [Compound G-31]	7 nM	11 nM	7930 nM	Area under curve AUC (in vivo): 1839 ng·h/mL; Maximum blood concentration Cmax (in vivo): 1237.0 ng/mL; Oral relative bioavailability F (%) (in vivo): 28.2%; Tmax (in vivo): 15 min; half-time T1/2 (in vivo): 1.72 h
C=CC(=O)N1CCCC(Nc2nc(Nc3ccc(N4CCOCC4=O)cc3)c3c(c2F)CNC3=O)C1 (stereo not drawn) [Compound G-17]	2 nM	16 nM	1500 nM	–
C=CC(=O)N1CCCC(N(C)c2nc(Nc3ccc(N4CCOCC4)cc3)c3c(c2F)CNC3=O)C1 (stereo not drawn) [Compound G-71, 6-((1-acryloylpiperidin-3-yl)(methyl)amino)-7-fluoro-4-(4-morpholin)-1H-pyrrolo[3,4-c]pyridine-3 (2H)-one]	5 nM	3 nM	1590 nM	AUC (in vivo; male, ICR): 606 ng·h/mL; Cmax (in vivo; male, ICR): 533 ng/mL; Tmax (in vivo; male, ICR): 4.8 min; bioavailability (in vivo; male, ICR): 7.4%; half-life (in vivo; male, ICR): 679 min; efficacy of the compound in mice compared with the compound without substituent on the nitrogen atom attached to the piperidine ring (in vivo): significantly lower
C=CC(=O)N1CC(Nc2nc(Nc3ccc(N4CCOCC4)cc3)c3c(c2F)CNC3=O)CCC1C (stereo not drawn) [Compound G-28]	5 nM	10 nM	2300 nM	–
C=CC(=O)N1CCCC(Nc2nc(Nc3cnn(C4CCOCC4)c3)c3c(c2F)CNC3=O)C1 (stereo not drawn) [Compound G-10]	3 nM	7 nM	1740 nM	–
C=CC(=O)N1CCCCC(Nc2nc(Nc3ccc(N4CCOCC4)cc3)c3c(c2F)CNC3=O)C1 (stereo not drawn) [Compound G-27]	5 nM	11 nM	3690 nM	–
C=CC(=O)NC1CN(c2nc(Nc3ccc(N4CCOCC4)cc3)c3c(c2F)CNC3=O)CC1F (stereo not drawn) [Compound G-86, N-(4-fluoro-1-(7-fluoro-4-(4-morpholin)-3-oxo-2,3-dihydro-1H-pyrrolo[3,4-c]pyridin-6-yl)pyrrolidinepyridine-3-yl)acrylamide]	1 nM	5 nM	1180 nM	–
C=CC(=O)N1CCCC(Nc2nc(Nc3ccc(N4CCN(C)CC4)cn3)c3c(c2F)CNC3=O)C1 (stereo not drawn) [Compound G-12]	21 nM	80 nM	3850 nM	–
C=CC(=O)N1CCCC(Nc2nc3c(c(Nc4cnn(C)c4)n2)C(=O)NC3)C1 (stereo not drawn) [Compound G-59, 2-(1-acryloylpiperidin-3-ylamino)-4-(1-methyl-1H-pyrazole-4-ylamino)-6,7-dihydrogen-5H-pyrrolo[3,4-d]pyrimidine-5-one]	13 nM	16 nM	1020 nM	–
C=CC(=O)N(C)C1CCN(c2nc(Nc3cnn(C)c3)c3c(c2F)CNC3=O)C1 (stereo not drawn) [Compound G-88, N-(1-(7-fluoro-4-(1-methyl-1H-pyrazol-4-ylamino)-3-oxo-2,3-dihydro-1H-pyrrolo[3,4-c]pyridin-6-yl)pyrrolidine-3-yl)-N-methyl acrylamide]	17 nM	56 nM	1050 nM	–
C=CC(=O)NC1CN(c2nc(Nc3cnn(C)c3)c3c(c2F)CNC3=O)C1 [Compound G-85, N-(1-(7-fluoro-4-(1-methyl-1H-pyrazol-4-ylamino)-3-oxo-2,3-dihydro-1H-pyrrolo[3,4-c]pyridin-6-yl)azetidin-3-yl)acrylamide]	32 nM	43 nM	1120 nM	–
C=CC(=O)N1CCCC(Nc2nc(Nc3cnn(C4CCS(=O)(=O)CC4)c3)c3c(c2F)CNC3=O)C1 (stereo not drawn) [Compound G-13]	3 nM	45 nM	1600 nM	–
C=CC(=O)N1CCCC(Nc2nc(-c3cnn(C)c3)c3c(c2F)CNC3=O)C1C (stereo not drawn) [Compound G-51]	62 nM	80 nM	6820 nM	–
C=CC(=O)N1CCCC(Nc2nc(Nc3cnn(C4CN(C)CC4F)c3)c3c(c2F)CNC3=O)C1 (stereo not drawn) [Compound G-15]	3 nM	5 nM	1220 nM	–
